These results are taken from PubChem BioAssay AID743423 (Vanderbilt Specialized Chemistry Center, 2014).

Activity calls are given as the source filed them. How the calls were made is not given here.

One may read the EC50 as the concentration at which the effect is half-maximal.

In the first assay the target is Metabotropic glutamate receptor 4 (Homo sapiens) (UniProt Q14833). Kind of assay: mGlu4 positive allosteric modulator potency, dose response, selectivity assay for mGlu7/mGlu8 PAM project, CHO Gqi5 cells, Fluo-4 calcium (AID 743423). To be noted: Fluo-4 calcium fluorescence.
Sequence of Metabotropic glutamate receptor 4 (Homo sapiens) (Q14833 whole entry, looked up): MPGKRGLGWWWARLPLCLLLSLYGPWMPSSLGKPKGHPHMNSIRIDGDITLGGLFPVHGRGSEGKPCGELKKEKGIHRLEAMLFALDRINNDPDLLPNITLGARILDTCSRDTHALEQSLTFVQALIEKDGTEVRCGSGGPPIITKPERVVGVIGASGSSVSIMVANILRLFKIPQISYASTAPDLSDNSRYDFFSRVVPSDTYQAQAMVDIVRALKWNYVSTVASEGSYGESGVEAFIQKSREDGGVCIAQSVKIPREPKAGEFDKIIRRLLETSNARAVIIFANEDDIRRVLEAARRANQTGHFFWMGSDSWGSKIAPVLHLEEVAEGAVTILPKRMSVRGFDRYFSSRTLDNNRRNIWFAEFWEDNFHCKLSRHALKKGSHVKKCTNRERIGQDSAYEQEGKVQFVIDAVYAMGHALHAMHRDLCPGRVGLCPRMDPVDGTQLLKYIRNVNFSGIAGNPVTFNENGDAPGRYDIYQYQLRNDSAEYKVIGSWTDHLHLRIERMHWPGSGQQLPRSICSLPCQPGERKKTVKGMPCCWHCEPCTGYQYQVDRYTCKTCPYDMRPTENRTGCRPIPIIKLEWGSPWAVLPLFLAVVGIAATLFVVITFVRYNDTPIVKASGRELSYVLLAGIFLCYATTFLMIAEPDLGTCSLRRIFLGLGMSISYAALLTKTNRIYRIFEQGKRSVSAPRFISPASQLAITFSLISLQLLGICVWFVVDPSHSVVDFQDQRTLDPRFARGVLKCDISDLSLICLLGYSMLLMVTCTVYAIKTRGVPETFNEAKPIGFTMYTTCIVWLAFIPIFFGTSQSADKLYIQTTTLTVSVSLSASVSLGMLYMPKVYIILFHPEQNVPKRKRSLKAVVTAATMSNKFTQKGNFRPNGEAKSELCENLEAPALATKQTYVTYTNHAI
For `CC(=O)Nc1ccc(SCC(=O)c2cc(C)n(-c3nc(C)cs3)c2C)cc1`, the EC50 is 10 µM. As for `COc1ccc(SCC(=O)c2cc(C)n(-c3ccc(OC(F)F)cc3)c2C)cc1`, the EC50 was 10 µM.

On to `CC(=O)Nc1ccc(SCC(=O)c2cc(C)n(CC3CCCO3)c2C)cc1` (stereo not drawn), for which the EC50 was 10 µM. On to `CC(=O)Nc1ccc(SCC(=O)c2cc(C)n(-c3ccc(S(N)(=O)=O)cc3)c2C)cc1`, for which the EC50 was 10 µM. `COC(=O)c1ccc(-n2c(C)cc(C(=O)CSCc3ccc(OC)cc3)c2C)cc1`: the EC50 was 1 µM. On to `COC(=O)c1ccc(-n2c(C)cc(C(=O)CSc3ccc(NC(C)=O)cc3)c2C)cc1`, for which the EC50 was 3.43 µM. As for `COC(=O)c1ccc(-n2c(C)cc(C(=O)COc3ccc(NC(C)=O)cc3)c2C)cc1`, the EC50 was 10 µM. In the case of `CCOc1ccc(-n2c(C)cc(C(=O)CSc3ccc(OC)cc3)c2C)cc1`, the EC50 was 10 µM. On the same count and under the same terms, with `CC(=O)Nc1ccc(OCC(=O)c2cc(C)n(-c3ccc(OC(F)F)cc3)c2C)cc1` the figure was 10 µM; with `CCn1c(C)cc(C(=O)CSc2ccc(NC(C)=O)cc2)c1C`, 10 µM. The same measure, in the same setting: with `CCOc1ccc(-n2c(C)cc(C(=O)CSCc3ccc(OC)cc3)c2C)cc1` the figure was 10 µM. As for `CC(=O)Nc1ccc(SCC(=O)c2cc(C)n(CC3COc4ccccc4O3)c2C)cc1` (stereo not drawn), the EC50 is 2.2 µM.

Consider `CC(=O)Nc1ccc(SCC(=O)c2cc(C)n(CCc3cccs3)c2C)cc1`, for which the EC50 was 2.6 µM. Regarding `COC(=O)c1ccc(-n2c(C)cc(C(=O)COc3ccc(OC(C)=O)cc3)c2C)cc1`, the concentration for a half-maximal effect (EC50) was 10 µM. On to `COC(=O)c1ccc(-n2c(C)cc(C(=O)CSc3ccc(N(C)C(C)=O)cc3)c2C)cc1`, for which the EC50 was 10 µM. Still for that read-out and setting: in the case of `COC(=O)c1ccc(-n2c(C)cc(C(=O)CSCc3cccc(C)c3)c2C)cc1` it was 10 µM; in that of `CC(=O)Nc1ccc(SCC(=O)c2cc(C)n(-c3cccc(F)c3)c2C)cc1`, 3.3 µM.

Still in this assay, the particulars now being: Fluo-4 calcium fluorescence, at 30 µM (top of the series).
As for `COC(=O)c1ccc(-n2c(C)cc(C(=O)COc3cccc(N(C)C)c3)c2C)cc1`, the “% glutamate max response” value was “inactive”. On to `COC(=O)c1ccc(-n2c(C)cc(C(=O)CNc3ccc(C(=O)O)cc3)c2C)cc1`, for which the “% glutamate max response” value was “inactive”.

Take `Cc1ccc(CSCC(=O)c2cc(C)n(-c3ccc(OC(F)F)cc3)c2C)cc1`: the “% glutamate max response” value is “inactive”. For `COc1ccc(CSCC(=O)c2cc(C)n(-c3ccc(OC(F)F)cc3)c2C)cc1`, the “% glutamate max response” value was “inactive”. Regarding `CC(=O)Nc1ccc(SCC(=O)c2cc(C)n(-c3ccccc3F)c2C)cc1`, the % glutamate max response is 22.3. Turning to `CCOc1ccc(-n2c(C)cc(C(=O)CSCc3cccc(C)c3)c2C)cc1`, the “% glutamate max response” value is “inactive”.
